Source: patent publication US10212936B2, “Molecules having pesticidal utility, and intermediates, compositions, and processes, related thereto” (priority 2014, dated 2019)

Tests used:
Type in all cases: in vivo
[1] = tested on: Yellow Fever Mosquito (Aedes aegypti, AEDSAE); test: Bioassay on Yellow Fever Mosquito (YFM) larvae, 96-well plate; conditions: about 1 day-old larvae, 4000 ppm DMSO master plate diluted, graded after 3 days
Outline: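 Compounds from 4000 ppm DMSO master stocks, diluted in 90:10 water:acetone, dispensed into wells and infested with about 1-day-old Aedes aegypti larvae in liver-powder water. Six replicate plates, covered and held at room temperature for 3 days, then each well scored for mortality.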

[2] = tested on: Cabbage Looper (Trichoplusia ni, TRIPNI); test: Bioassay on Cabbage Looper (CL), 128-well diet tray assay; conditions: 168 h, 50 μg/cm^2 on artificial diet, second instar larvae, five to seven days, 25° C., read-out: CL % Control (or Mortality) rating
Outline: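 Diet-tray test with one to five second-instar larvae per well on artificial diet treated with 50 μg/cm^2 compound (in 90:10 acetone-water), dried, eight wells per molecule. Held 25 °C, 14:10 light-dark for five to seven days; percent mortality averaged over the eight wells.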

[3] = tested on: Beet Armyworm (Spodoptera exigua, LAPHEG); test: Bioassay on Beet Armyworm (BAW), 128-well diet tray assay; conditions: 168 h, 50 μg/cm^2 on artificial diet, second instar larvae, five to seven days, 25° C., read-out: BAW % Control (or Mortality) rating
Outline: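 Second instar larvae, one to five per well, placed on artificial diet treated with 50 μg/cm^2 compound (in 90:10 acetone-water) and dried; eight wells per compound. Held at 25° C, 14:10 light-dark, five to seven days. Percent mortality recorded per well and averaged.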

[4] = tested on: Green Peach Aphid (Myzus persicae, MYZUPE); test: Bioassay on Green Peach Aphid (GPA), foliar spray on cabbage seedlings; conditions: 72 h, 200 ppm foliar spray on cabbage seedlings, three days, Abbott corrected % control, read-out: GPA % Control (or Mortality) rating
Description: Example B: Bioassays on Green Peach Aphid (Myzus persicae, MYZUPE) (“GPA”)
Certain molecules disclosed in this document were tested against GPA using procedures described in the following example. In the reporting of the results, the “GPA Rating Table” was used (See Table Section).
Cabbage seedlings grown in 3-inch pots, with 2-3 small (3-5 cm) true leaves, were used as test substrate. The seedlings were infested with 20-50 GPA (wingless adult and nymph stages) one day prior to chemical application. Four pots with individual seedlings were used for each treatment. Test molecules (2 mg) were dissolved in 2 mL of acetone/methanol (1:1) solvent, forming stock solutions of 1000 ppm test molecule. The stock solutions were diluted 5× with 0.025% Tween 20 in water to obtain the solution at 200 ppm test molecule. A hand-held aspirator-type sprayer was used for spraying a solution to both sides of […] leaves until runoff. Reference plants (solvent check) were sprayed with the diluent only containing 20% by volume of acetone/methanol (1:1) solvent. Treated plants were held in a holding room for three days at approximately 25° C. and ambient relative humidity (RH) prior to grading. Evaluation was conducted by counting the number of live aphids per plant under a microscope. Percent Control was measured by using Abbott's correction formula (W. S. Abbott, “A Method of Computing the Effectiveness of an Insecticide” J. Econ. Entomol. 18 (1925), pp. 265-267) as follows. Corrected % Control=100*(X−Y)/X • where • X=No. of live aphids on solvent check plants and • Y=No. of live aphids on treated plants
The results are indicated in the table entitled “Table ABC: Biological Results” (See Table Section).

SMILES | YFM % Control (or Mortality) rating [1] | mortality at 50 µg/cm2 [2] | mortality at 50 µg/cm2 [3] | mortality at 200 ppm [4]
O=C(Nc1ccc(-c2ncn(-c3ccc(OC(F)(F)F)cc3)n2)cc1)Nc1ccnn1-c1c(Cl)cccc1Cl [F4, 1-(1-(2,6-Dichlorophenyl)-1H-pyrazol-5-yl)-3-(4-(1-(4-(trifluoromethoxy)phenyl)-1H-1,2,4-triazol-3-yl)phenyl)urea] | A (80-100) | 50 to 100% | 50 to 100% | 0 to 80%
Cc1cc(C)c(-n2nccc2NC(=O)Nc2ccc(-c3ncn(-c4ccc(OC(F)(F)F)cc4)n3)cc2)c(C)c1 [F11, 1-(1-Mesityl-1H-pyrazol-5-yl)-3-(4-(1-(4-(trifluoromethoxy)phenyl)-1H-1,2,4-triazol-3-yl)phenyl)urea] | A (80-100) | 50 to 100% | 50 to 100% | 0%
Cc1ccc(-n2nccc2NC(=O)Nc2ccc(-c3ncn(-c4ccc(OC(F)(F)C(F)(F)F)cc4)n3)cc2)c(C)c1 [F15, 1-(1-(2,4-Dimethylphenyl)-1H-pyrazol-5-yl)-3-(4-(1-(4-(perfluoroethoxy)phenyl)-1H-1,2,4-triazol-3-yl)phenyl)urea] | A (80-100) | 50 to 100% | 50 to 100% | 0 to 80%
COc1ccccc1-n1nccc1NC(=O)Nc1ccc(-c2ncn(-c3ccc(OC(F)(F)C(F)(F)F)cc3)n2)cc1 [F19, 1-(1-(2-Methoxyphenyl)-1H-pyrazol-5-yl)-3-(4-(1-(4-(perfluoroethoxy)phenyl)-1H-1,2,4-triazol-3-yl)phenyl)urea] | A (80-100) | 50 to 100% | 50 to 100% | 0 to 80%
CCc1ccccc1-n1nccc1NC(=O)Nc1ccc(-c2ncn(-c3ccc(OC(F)(F)F)cc3)n2)cc1 [F6, 1-(1-(2-Ethylphenyl)-1H-pyrazol-5-yl)-3-(4-(1-(4-(trifluoromethoxy)phenyl)-1H-1,2,4-triazol-3-yl)phenyl)urea] | A (80-100) | 50 to 100% | 50 to 100% | 0%
COc1ccccc1-n1nccc1NC(=O)Nc1ccc(-c2ncn(-c3ccc(OC(F)(F)F)cc3)n2)cc1 [F13, 1-(1-(2-Methoxyphenyl)-1H-pyrazol-5-yl)-3-(4-(1-(4-(trifluoromethoxy)phenyl)-1H-1,2,4-triazol-3-yl)phenyl)urea] | A (80-100) | 50 to 100% | 50 to 100% | 0%
O=C(Nc1ccc(-c2ncn(-c3ccc(OC(F)(F)F)cc3)n2)cc1)Nc1ccnn1-c1cc(Cl)ccc1Cl [F12, 1-(1-(2,5-Dichlorophenyl)-1H-pyrazol-5-yl)-3-(4-(1-(4-(trifluoromethoxy)phenyl)-1H-1,2,4-triazol-3-yl)phenyl)urea] | A (80-100) | 50 to 100% | 50 to 100% | 0 to 80%
Cc1ccc(C)c(-n2nccc2NC(=O)Nc2ccc(-c3ncn(-c4ccc(OC(F)(F)C(F)(F)F)cc4)n3)cc2)c1 [F17, 1-(1-(2,5-Dimethylphenyl)-1H-pyrazol-5-yl)-3-(4-(1-(4-(perfluoroethoxy)phenyl)-1H-1,2,4-triazol-3-yl)phenyl)urea] | A (80-100) | 50 to 100% | 50 to 100% | 0 to 80%
O=C(Nc1ccc(-c2ncn(-c3ccc(OC(F)(F)C(F)(F)F)cc3)n2)cc1)Nc1ccnn1-c1c(Cl)cccc1Cl [F14, 1-(1-(2,6-Dichlorophenyl)-1H-pyrazol-5-yl)-3-(4-(1-(4-(perfluoroethoxy)phenyl)-1H-1,2,4-triazol-3-yl)phenyl)urea] | A (80-100) | 50 to 100% | 50 to 100% | 0 to 80%
